Measured values reported in article PMC6009919, “Newer human inosine 5′-monophosphate dehydrogenase 2 (hIMPDH2) inhibitors as potential anticancer agents” (Journal of Enzyme Inhibition and Medicinal Chemistry, 2018).
Where a name gives a salt, the structure may show the parent alone. Read-outs that look alike come from different tables or passages of the source.

What was measured:
hIMPDH2 = molecular target: T1, hIMPDH2 (Homo sapiens, UniProt P12268); assay: In vitro hIMPDH2 inhibition assay; format: biochemical; details: for inhibition at 10 µM / hIMPDH2 enzyme % Inhibition: ± SD, at 10 µM; for inhibition at 10 µM: read-out: hIMPDH2 enzyme % Inhibition; for IC50: triplicate, determined when inhibition >70% at 10 µM, read-out: hIMPDH2 enzyme IC50 (µM) ± SD
T1 construct: purchased NovoCIB SAS (Lyon, France)
Protocol: The enzyme (hIMPDH2) was purchased from NovoCIB SAS (Lyon, France). […] The assay was performed in a 200 µl final volume in 96-well UV plates (Tarsons, 980040, Tarsons Products Pvt. Ltd., Kolkata, India) with a reaction buffer composed of 100 mM Tris–HCl (pH 8.6), 100 mM KCl and 5 mM DTT, 4% v/v DMSO plus or minus test compound and 0.15 mU of purified hIMPDH2 enzyme per well (from 1.5 mg/ml stock solution). […] The reaction was initiated by the addition of (substrate buffer) 0.2 mM of IMP and 0.2 mM of NAD^+ and the assay was allowed to proceed at 37 °C for 45 min. The generated NADH was measured by reading the absorbance at 340 nm. […] The MPA (10 µM) was used as a positive control and DMSO as a vehicle control. […] Enzyme inhibition and IC50 values were expressed in % inhibition and μM, respectively.

[1] = system: MDA-MB-231 (breast adenocarcinoma); assay: Cell viability (MTT assay), MDA-MB-231; format: cell-based; details: for IC50: MTT, 48-h incubation, triplicate, read-out: Cytotoxicity IC50 (μM) ± SD, MDA-MB-231
Protocol: (§1) Cancer cell lines such as MDA-MB-231 (breast adenocarcinoma), DU145 (prostate carcinoma) and U87 MG (glioblastoma astrocytoma) were purchased from National Centre for Cell Sciences (NCCS) (Pune, India). Cytotoxic activity of compounds (>80% hIMPDH2 inhibition at 10 μM) was evaluated using colorimetric MTT assay on the above-mentioned cell lines. Briefly, cells were grown in DMEM media supplemented with foetal bovine serum (FBS) 10% and penicillin–streptomycin (50 U/ml, 50 µg/ml) at 37 °C, CO2 (5%) and air (95%). Logarithmically, growing cells were seeded using 96-well plate at different concentrations of the test compounds ranging from 0.01 to 100 μM (seeding density: MDA-MB-231: 10,000 cells/well, DU145: 8000 cells/well, U87 MG: 5000 cells/well). […] Each dilution of test compound was added in triplicate. Following 48-h incubation with the compounds, cells were incubated with MTT reagent (5 mg/ml) for 4 h, and then 100 μl of DMSO was added to dissolve formazan crystals. The absorbance was then measured at 540 nm and 630 nm (background scan) using EPOCH 2 BioTek microplate reader. The IC50 values for the tested compounds were calculated and expressed in μM using mean of triplicate readings.

[2] = system: DU145 (prostate carcinoma); assay: Cell viability (MTT assay), DU145; format: cell-based; details: for IC50: MTT, 48-h incubation, triplicate, read-out: Cytotoxicity IC50 (μM) ± SD, DU145
Protocol: as §1

[3] = system: U87 MG (glioblastoma astrocytoma); assay: Cell viability (MTT assay), U87 MG; format: cell-based; details: for IC50: MTT, 48-h incubation, triplicate, read-out: Cytotoxicity IC50 (μM) ± SD, U87 MG
Protocol: as §1

[4] = hPBMC proliferation assay; format: cell-based; details: human, human peripheral blood mononuclear cells (hPBMC), read-out: % cell viability
Source text: Higher lipophilicity and masking of the –COOH in 1 could possibly be responsible for this observation since usually acids are prevented from entering in the CNS.[35] […] The possibility of the title compounds behaving as prodrugs could be minute due to the difficulty in hydrolysing the amide linkage inside cells and release of the active form “MPA”.

Structure (SMILES) | inhibition at 10 µM (hIMPDH2) [%] | hIMPDH2 enzyme % Inhibition (hIMPDH2) [%] | IC50 (hIMPDH2) [µM] | other results
COc1c(C)c2c(c(O)c1C/C=C(\C)CCC(=O)O)C(=O)OC2 [Compound 1, Mycophenolic acid, reference compound] | 99.9 ± 1.2 | – | – | IC50 ([1]; Homo sapiens, MDA-MB-231): 4.38 ± 0.06 µM; IC50 ([2]; Homo sapiens, DU-145): 2.94 ± 0.09 µM; IC50 ([3]; Homo sapiens, U-87 MG): 10.7 ± 0.21 µM; viability [4]: 63%
COc1c(C)c2c(c(O)c1C/C=C(\C)CCC(=O)N[C@@H](C)c1ccccc1)C(=O)OC2 [Compound 14, (S)(E)-6–(4-hydroxy-6-methoxy-7-methyl-3-oxo-1,3-dihydroisobenzofuran-5-yl)-4-methyl-N-(1-phenylethyl)hex-4-enamide] | 59.1 ± 1.91 | – | – | –
COc1c(C)c2c(c(O)c1C/C=C(\C)CCC(=O)N[C@H](C)c1ccccc1)C(=O)OC2 [Compound 15] | > 70 | 73.94 ± 2.84 | 0.82 ± 0.32 | –
COc1c(C)c2c(c(O)c1C/C=C(\C)CCC(=O)NCc1ccccc1Cl)C(=O)OC2 [Compound 16] | > 70 | 72.04 ± 1.11 | 0.73 ± 0.06 | –
COc1c(C)c2c(c(O)c1C/C=C(\C)CCC(=O)NCc1ccco1)C(=O)OC2 [Compound 17] | – | 67.18 ± 4.16 | – | –
COc1ccc(CNC(=O)CC/C(C)=C/Cc2c(O)c3c(c(C)c2OC)COC3=O)cc1 [Compound 18] | 96.1 ± 2.51 | – | 0.33 ± 0.11 | IC50 ([1]; Homo sapiens, MDA-MB-231): 2.42 ± 0.11 µM; IC50 ([2]; Homo sapiens, DU-145): 1.8 ± 0.07 µM; IC50 ([3]; Homo sapiens, U-87 MG): 5.26 ± 0.18 µM
COc1c(C)c2c(c(O)c1C/C=C(\C)CCC(=O)NCc1ccc(C)cc1)C(=O)OC2 [Compound 19] | 73.4 ± 3.62 | – | 0.6 ± 0.13 | –
COc1c(C)c2c(c(O)c1C/C=C(\C)CCC(=O)NCc1ccc(Cl)cc1)C(=O)OC2 [Compound 20] | – | 81.36 ± 1.95 | 0.57 ± 0.11 | IC50 [1]: 4.1 ± 0.23 µM; IC50 [2]: 2.69 ± 0.11 µM; IC50 [3]: 7.31 ± 0.17 µM
COc1c(C)c2c(c(O)c1C/C=C(\C)CCC(=O)NCc1ccncc1)C(=O)OC2 [Compound 21] | 57.4 ± 1.02 | – | – | –
COc1c(C)c2c(c(O)c1C/C=C(\C)CCC(=O)NCc1ccccn1)C(=O)OC2 [Compound 22] | 59.4 ± 1.81 | – | – | –
COc1c(C)c2c(c(O)c1C/C=C(\C)CCC(=O)NCc1ccccc1C)C(=O)OC2 [Compound 23] | 84 ± 2.13 | – | 0.5 ± 0.18 | IC50 ([1]; Homo sapiens, MDA-MB-231): 0.77 ± 0.04 µM; potency relative to MPA, MDA-MB-231 ([1]; fold vs MPA): five-fold more potent than MPA; IC50 ([2]; Homo sapiens, DU-145): 1.28 ± 0.04 µM; IC50 ([3]; Homo sapiens, U-87 MG): 4.66 ± 0.07 µM
COc1c(C)c2c(c(O)c1C/C=C(\C)CCC(=O)NCCCCc1ccccc1)C(=O)OC2 [Compound 24] | – | 93.62 ± 3.17 | 0.48 ± 0.02 | IC50 ([1]; Homo sapiens, MDA-MB-231): 1.46 ± 0.07 µM; IC50 ([2]; Homo sapiens, DU-145): 1.09 ± 0.02 µM; potency relative to MPA, DU145 ([2]; fold vs MPA): three-fold higher potency than MPA; IC50 ([3]; Homo sapiens, U-87 MG): 3.35 ± 0.09 µM; potency relative to MPA, U87 MG ([3]; fold vs MPA): three-fold more active than MPA; viability [4]: 65%
COc1c(C)c2c(c(O)c1C/C=C(\C)CCC(=O)NCc1ccc3c(c1)OCO3)C(=O)OC2 [Compound 25] | – | 87.09 ± 4.54 | 0.51 ± 0.08 | IC50 [1]: 1.86 ± 0.16 µM; IC50 [2]: 2.53 ± 0.15 µM; IC50 [3]: 8.16 ± 0.27 µM
COc1c(C)c2c(c(O)c1C/C=C(\C)CCC(=O)NCCN1CCOCC1)C(=O)OC2 [Compound 26] | 36 ± 3.86 | – | – | –
COc1cccc(NC(=O)CC/C(C)=C/Cc2c(O)c3c(c(C)c2OC)COC3=O)c1 [Compound 27, (E)-6–(4-hydroxy-6-methoxy-7-methyl-3-oxo-1,3-dihydroisobenzofuran-5-yl)-N-(3-methoxyphenyl)-4-methylhex-4-enamide] | 30.8 ± 2.82 | – | – | –
COc1ccc(NC(=O)CC/C(C)=C/Cc2c(O)c3c(c(C)c2OC)COC3=O)cc1 [Compound 28] | – | 54.84 ± 1.15 | – | –
COc1cccc2c1C(=O)c1c(O)c3c(c(O)c1C2=O)C[C@@](O)(C(=O)CO)C[C@@H]3O[C@H]1C[C@H](N)[C@H](O)[C@H](C)O1 [Doxorubicin HCl, reference compound] | – | – | – | IC50 ([1]; Homo sapiens, MDA-MB-231): 0.54 ± 0.08 µM; IC50 ([2]; Homo sapiens, DU-145): 0.21 ± 0.06 µM; IC50 ([3]; Homo sapiens, U-87 MG): 0.11 ± 0.02 µM
